Test results: the pKa sets of Baltruschat and Czodrowski (2020)

conditions: basic group

| Structure (SMILES) | pKa |
| --- | --- |
| Nc1cc2ccccc2cn1 | 5.05 |
| Cc1cc(C)n(-c2cc(C)n(C)[nH+]2)n1 | -2.9 |
| CCN(CC)c1ccc([N+](=O)[O-])cc1 | 1.7 |
| c1ccc2c(CC3=NCCN3)cccc2c1 | 10.3 |
| O/N=C/c1ccnc2ccccc12 | 4.55 |
| COc1ccc(N)cn1 | 4.24 |
| Nc1cc[n+]([O-])cc1 | 3.61 |
| CCN1CCCCC1 | 10.7 |
| O=C(NNc1ccc(Br)cc1)c1ccncc1 | 4.03 |
| CC(C)NCC(O)c1cccc(N)c1 (stereo not given) | 9.6 |
| CC(C)(C)c1cc(O)[nH]n1 | 2.9 |
| Oc1ccc(Cl)c2cccnc12 | 3.68 |
| Cc1[nH+]c2cc(N)ccc2n1C | 3.38 |
| CNc1ccc(C)cc1 | 5.36 |
| NNC(=O)[C@H](Cc1c[nH]c[nH+]1)NC(=O)OCc1ccccc1 | 2.5 |
| Brc1cc2cccnc2c2ncccc12 | 4.2 |
| CC[NH+](CC)CCCC(C)Nc1cc(OC)cc2ccc[nH+]c12 (stereo not given) | -1.33 |
| CCCCSCCN(CC)CC | 8.43 |
| Nc1ccc2nnc3ccccc3c2c1 | 6.68 |
| Cc1ccc([C@@H](OCCN(C)C)c2ccccc2)cc1 | 8.5 |
| CCN(CC)CC1CO1 (stereo not given) | 8.55 |
| c1c(CN2CCNCCNCC2)n[nH]c1CN1CCNCCNCC1 | 11.2 |

| Structure (SMILES) | pKa |
| --- | --- |
| CN[C@H]1C[C@]1(C)[NH2+]C | 5.52 |
| CC[NH+](CC)CCOCCN(C)C | 8.4 |
| N#CC(CCN1CCOCC1)(c1ccccc1)c1ccccc1 | 6.09 |
| CCCC(=O)OC(C)CN(C)C (stereo not given) | 8.27 |
| c1ccc(Nc2nccs2)cc1 | 4.33 |
| CC(C)CSC(=N)c1ccccc1 | 8.22 |
| O/N=C/NO | 4.05 |
| C=C(C)C(=O)OCCNCC | 9.15 |
| O=P([O-])([O-])C(NCc1ccccn1)c1ccccc1[O-] (stereo not given) | 12.1 |
| Nc1ccc2c(c1O)Cc1ccccc1-2 | 4.82 |
| Cc1c(N)ccc2c1-c1c(ccc3ccccc13)C2 | 4.49 |
| COc1ccccc1/C(=N/CCC[NH+](C)C)c1ccccc1 | 4.62 |
| CN(CCCN)CCCN | 10.4 |
| CN(C)CCC#N | 7.01 |
| CN(C)c1ccc(/N=N/c2ccccn2)cc1 | 4.5 |
| CCN(CC)c1ncnc2[nH]ncc12 | 4.71 |
| CC1CCN(c2cc[nH+]cc2)CC1 | -0.56 |
| [NH3+]Cc1ccncc1 | 4.05 |
| Cc1cccc(/N=C/N(C)C)c1 | 9.11 |
| Cc1c(C(=O)[O-])sc2cc(Cn3ccnc3)ccc12 | 6.35 |
| SCCNCc1cccs1 | 8.93 |
| CN(C)c1ncnc2nc[nH]c12 | 3.87 |

| Structure (SMILES) | pKa |
| --- | --- |
| Cc1ccc2c(c1)NCC[NH2+]2 | 2.03 |
| SCCNCCc1ccccc1 | 8.11 |
| Cn1cncc1C[C@H](N)C(=O)[O-] | 8.72 |
| CC1=C(CC(C)NCC(O)c2ccc(C)cc2)CCC1(C)C (stereo not given) | 8.71 |
| C1N2CN3CN1C[NH+](C2)C3 | -1.7 |
| CCCCN(C)N(C)CCCC | 7.16 |
| C#CCCCCN | 10.5 |
| Nc1cccnc1C(=O)[O-] | 7.18 |
| O=C([O-])[C@@H]1Cc2[nH]cnc2C[NH2+]1 | 4.73 |
| Cc1cc([O-])n(C2CCN(C)CC2)n1 | 9 |
| CC(C)C[C@H]([NH3+])C(=O)N[C@@H](Cc1c[nH]cn1)C(=O)[O-] | 6.69 |
| OCCC[C@@H]1CC[C@@H]2CCCN12 | 11.5 |
| C/N=C(\C)SC | 7.71 |
| [O-]c1nc([O-])c2[nH]cnc2n1 | 11.1 |
| C[NH+]1CCCC1c1cncc2[nH]c3ccccc3c12 (stereo not given) | 5.17 |
| CC1=CC(C)=Nc2ccc(C)cc2N1 | 3.5 |
| NCCc1cccc(O)c1O | 8.6 |
| CN1CCCC1c1ccccc1 (stereo not given) | 8.8 |
| c1ccc(-c2ccc3nc(C[NH+]4CCOCC4)cn3n2)cc1 | 1.4 |
| CNC(C)(C)C(=O)[O-] | 10.8 |
| c1ccc(-n2cccn2)[nH+]c1 | -4.8 |
| CCOCCn1c(N2CCC[NH+](CCCCn3cccn3)CC2)nc2ccccc21 | 4.9 |

| Structure (SMILES) | pKa |
| --- | --- |
| COc1cccnc1 | 4.89 |
| CC(C)(C(=O)[O-])c1c[nH]c(CO)n1 | 7.38 |
| [O-]c1ccccn1 | 11.7 |
| NCCc1ccc(O)c(O)c1 | 8.89 |
| CNC(=O)/C=C(\c1ccc2nc(N)n(C3CCCC3)c2c1)c1ccccc1F | 6.7 |
| CCC(N)C(=O)[O-] (stereo not given) | 9.67 |
| CC1=C(CC(C)NCC(O)c2ccc(Br)cc2)CCC1(C)C (stereo not given) | 8.57 |
| c1ccc(CNc2ncnc3[nH]cnc23)cc1 | 4.09 |
| Clc1ccc(CNc2ncnc3[nH]ncc23)cc1 | 3.96 |
| CC(=O)n1cccn1 | 3.16 |
| NCCCCOc1c2ccccc2cc2ccccc12 | 9.94 |
| C1CSCCN1 | 9.05 |
| CCc1ccc(C)nn1 | 4.17 |
| FC(F)(F)c1ccc2cccnc2c1 | 3.16 |
| Nc1ccc2c(c1)-c1ccccc1C2 | 4.68 |
| Nc1nc2ccccc2nc1N | 4.7 |
| NCCc1ccc([O-])cc1 | 10.4 |
| Cc1cc([N+](=O)[O-])ccc1NN=C(C#N)C#N | -0.74 |
| NC(=[NH2+])Nc1nccc(-c2csc(N)n2)n1 | 2.7 |
